Assay results: patent publication US20150315241A1, “Antibiotic Peptides” (priority 2007, published 2015)
Converted amounts (≈) assume the structure as drawn. Like-named read-outs stand apart in the source and are kept apart here. Where a SMILES comes first, the peptide text is derived from it. Where no end group is shown, it is not given here. [ ]: non-standard residue; d: D form. Orn = NCCC[C@H](N)C(=O)O

Columns and labels:
in vitro = in vitro ADME, mouse; conditions: 25% aqueous mouse serum, 37° C.; read-out: Half-life time
Procedure, shortened: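 Peptide or peptidomimetic (0.5 mg/mL aqueous stock) incubated in 25% pooled mouse serum at 37 °C, sampled at 0–6 h, in duplicate. Proteins precipitated with 15% TCA; supernatants neutralized and analyzed by RP-HPLC with 0.1% TFA. Degradation products identified by MALDI-TOF/TOF-MS.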

E. coli 45849 = assay: Growth inhibition assay (MIC); type: cell-based, Escherichia coli
Procedure, shortened: (§1)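 Broth microdilution with two-fold peptide series, final 125 μg/mL down to 60 ng/mL, against overnight cultures adjusted to 5×10^6 CFU/mL in 1% TSB. Incubated 20 h at 37° C. Growth read by absorbance at 595 nm, triplicates.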

S. typhi S5 = type: cell-based, Salmonella typhi; conditions: S5, 20 h
Procedure, shortened: as §1

E. coli D31 = type: cell-based, Escherichia coli; conditions: D31, 20 h
Procedure, shortened: as §1

K. Pneumonia 123132 = assay: Growth inhibition assay (MIC); type: cell-based, Klebsiella pneumoniae
Procedure, shortened: as §1

[1] = test system: K. Pneumonia K6, ATCC 700603; assay: Growth inhibition assay (MIC); type: cell-based, Klebsiella pneumoniae; conditions: multidrug resistant strain; 1% TSB, 37° C., 20 hrs
Procedure, shortened: as §1

[2] = test system: S. enterica subsp. Enterica serovar. typhi G10215 ATCC 700408; type: cell-based, Salmonella enterica; conditions: ATCC 700408, 20 h
Procedure, shortened: as §1

[3] = test system: R. radiobatter ATCC 15955; assay: Growth inhibition assay (MIC); type: cell-based, Rhizobium radiobacter
Procedure, shortened: as §1

E. coli BL 21 AI = assay: Growth inhibition assay (MIC); type: cell-based, Escherichia coli; conditions: 1% TSB, 37° C., 20 hrs
Procedure, shortened: (§2)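 Bacteria grown overnight in NB at 37° C. were adjusted to 5×10^6 CFU/mL in 1% TSB and mixed 1:1 with a two-fold peptide series (final 125 μg/mL–60 ng/mL). After 20 hrs at 37° C., A595 was read; triplicates.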

E. coli DC 2 = assay: Growth inhibition assay (MIC); type: cell-based, Escherichia coli; conditions: 1% TSB, 37° C., 20 hrs
Procedure, shortened: as §2

M. luteus ATCC 10240 = type: cell-based, Micrococcus luteus
Procedure, shortened: as §2

E. coli 1103 = type: cell-based, Escherichia coli
Procedure, shortened: as §2

K. pneumonia 681 = type: cell-based, Klebsiella pneumoniae
Procedure, shortened: as §2

Mycobacterium vaccae = type: cell-based
Experimental: The minimal inhibition concentrations (MIC) of the apidaecin-derived peptides and peptide-derivatives were determined by a growth inhibition assay using a serial peptide dilution in sterilized round-bottom 96-well plates (polystyrene, U-bottom, Greiner Bio-One GmbH) with a final volume of 100 μL per well. The bacteria, e.g., E. coli BL21 A1, were grown in nutrient broth (NB, Carl Roth GmbH+Co. KG, Karlsruhe, Germany) at 37° C. over night. To each well of the 96-well plate, 50 μL of the overnight culture adjusted to 5×10^6 CFU/mL in 1% TSB were added. Lyophilized peptides and peptidomimetics were dissolved in 1% TSB (tryptic soy broth) or water to give a final concentration of 250 μg/mL. Fifty μL of the peptide or peptidomimetics solution were added to the first well of a row on the plate and mixed. Fifty μL of the first well containing the peptide solution were transferred to the second well, mixed and again 50 μL transferred to the next well and so on. Thereby, a two-fold dilution series was obtained starting at 250 μg/mL in the first well down to 120 ng/mL in the 12th well of a row giving a final peptide or peptidomimetics concentration from 125 μg/mL (well 1) to 60 ng/mL (well 12). Plates were incubated at 37° C. for 20 hrs. The absorbance was measured at 595 nm using a TECAN micro plate spectrophotometer (Tecan, Germany). All peptides and peptidomimetics were measured in triplicates. Sterilized water was used as a negative control.
The bacteria strains were tested: • Eschericha coli 1103, 10233, BL 21 AI, DC 2, • Klebsiella pneumoniae 681, • Micrococcus luteus ATCC 10240, • Mycobacterium vaccae • Bactillus subtillis 347.

B. subtilis 347 = type: cell-based, Bactillus subtillis
Procedure, shortened: as §2

E. coli 10233 = type: cell-based, Escherichia coli; conditions: 10233, 20 h
Procedure, shortened: as §2

[4] = multidrug resistant strain, 1% TSB, 37° C., 20 hrs

Compound | half-life at 0.061 mg/mL (in vitro) [min] | MIC E. coli 45849 (E. coli 45849; [4]) [µg/mL] | MIC S. typhi S5 (S. typhi S5) [µg/mL] | MIC E. coli D31 (E. coli D31) [µg/mL] | MIC K. Pneumonia 123132 (K. Pneumonia 123132; [4]) [µg/mL] | MIC K. Pneumonia K6, ATCC 700603 [1] [µg/mL] | MIC S. enterica subsp. Enterica serovar. typhi G10215 ATCC 700408 [2] [µg/mL] | MIC R. radiobatter ATCC 15955 [3, 4] [µg/mL] | MIC E. coli BL 21 AI (E. coli BL 21 AI) [µg/mL] | MIC E. coli DC 2 (E. coli DC 2) [µg/mL] | MIC M. luteus ATCC 10240 (M. luteus ATCC 10240; ATCC 10240, 20 h) [µg/mL] | MIC E. coli 1103 (E. coli 1103; 1103, 20 h) [µg/mL] | MIC K. pneumonia 681 (K. pneumonia 681; 20 h) [µg/mL] | MIC Mycobacterium vaccae (Mycobacterium vaccae; 20 h) [µg/mL] | MIC B. subtilis 347 (B. subtilis 347; 347, 20 h) [µg/mL] | MIC E. coli 10233 (E. coli 10233) [µg/mL] | other results
CC[C@H](C)[C@H](NC(=O)[C@H](Cc1ccc(O)cc1)NC(=O)[C@@H](NC(=O)[C@@H]1CCCN1C(=O)[C@H](CCCNC(=N)N)NC(=O)[C@H](CC(N)=O)NC(=O)[C@H](CC(N)=O)NC(=O)[C@H](CCCN)NC(C)=O)C(C)C)C(=O)N1CCC[C@H]1C(=O)N[C@@H](CCC(N)=O)C(=O)N1CCC[C@H]1C(=O)N[C@@H](CCCNC(=N)N)C(=O)N1CCC[C@H]1C(=O)N1CCC[C@H]1C(=O)N[C@@H](Cc1c[nH]cn1)C(=O)N1CCC[C@H]1C(=O)N[C@@H](CCCNC(=N)N)C(=O)N[C@@H](CC(C)C)C(N)=O [compound 7] (Ac-[Orn]NNRPVYIPQPRPPHPRL-NH2) | 15 | 1 (≈ 0.453 µM) | 2 (≈ 0.906 µM) | 4 to 8 | 16 (≈ 7.25 µM) | 64 (≈ 29 µM) | 0.5 to 1 | <0.16 | 0.49 (≈ 0.222 µM) | 3.9 (≈ 1.77 µM) | 3.91 (≈ 1.77 µM) | 1.95 (≈ 0.884 µM) | 1.95 (≈ 0.884 µM) | 125 (≈ 56.6 µM) | >125 | – | –
CC[C@H](C)[C@H](NC(=O)[C@H](Cc1ccc(O)cc1)NC(=O)[C@@H](NC(=O)[C@@H]1CCCN1C(=O)[C@H](CCCNC(=N)N)NC(=O)[C@H](CC(N)=O)NC(=O)[C@H](CC(N)=O)NC(=O)[C@@H](N)CCCN)C(C)C)C(=O)N1CCC[C@H]1C(=O)N[C@@H](CCCNC(=N)N)C(=O)N1CCC[C@H]1C(=O)N[C@@H](CCCNC(=N)N)C(=O)N1CCC[C@H]1C(=O)N1CCC[C@H]1C(=O)N[C@@H](Cc1c[nH]cn1)C(=O)N1CCC[C@H]1C(=O)N[C@@H](CCCNC(=N)N)C(=O)N[C@@H](CC(C)C)C(N)=O [compound 38] (H-[Orn]NNRPVYIPRPRPPHPRL-NH2) | – | 0.5 (≈ 0.228 µM) | <0.5 | 2 (≈ 0.912 µM) | 2 (≈ 0.912 µM) | 4 (≈ 1.82 µM) | 2 (≈ 0.912 µM) | 1.3 (≈ 0.593 µM) | 1.95 (≈ 0.889 µM) | 0.98 (≈ 0.447 µM) | 1.95 (≈ 0.889 µM) | 3.91 (≈ 1.78 µM) | 1.95 (≈ 0.889 µM) | 125 (≈ 57 µM) | 62.5 (≈ 28.5 µM) | 1.95 (≈ 0.889 µM) | –
GNNRPVYIPQPRPPHPRI [compound 1] | – | – | – | 64 | – | 64 | 2 | – | 0.98 | 3.91 | 31.25 | 1.95 | 15.62 | >125 | >125 | 1.95 | –
CC[C@H](C)[C@H](NC(=O)[C@H](Cc1ccc(O)cc1)NC(=O)[C@@H](NC(=O)[C@@H]1CCCN1C(=O)[C@H](CCCNC(=N)N)NC(=O)[C@H](CC(N)=O)NC(=O)[C@H](CC(N)=O)NC(=O)[C@H](CCCN)NC(C)=O)C(C)C)C(=O)N1CCC[C@H]1C(=O)N[C@@H](CCCNC(=N)N)C(=O)N1CCC[C@H]1C(=O)N[C@@H](CCCNC(=N)N)C(=O)N1CCC[C@H]1C(=O)N1CCC[C@H]1C(=O)N[C@@H](Cc1c[nH]cn1)C(=O)N1CCC[C@H]1C(=O)N[C@@H](CCCNC(=N)N)C(=O)N[C@@H](CC(C)C)C(N)=O [compound 39] (Ac-[Orn]NNRPVYIPRPRPPHPRL-NH2) | – | 1 (≈ 0.447 µM) | <0.5 | 4 (≈ 1.79 µM) | 4 (≈ 1.79 µM) | 16 (≈ 7.16 µM) | 4 (≈ 1.79 µM) | 0.33 (≈ 0.148 µM) | 1.95 (≈ 0.873 µM) | 0.98 (≈ 0.439 µM) | 0.98 (≈ 0.439 µM) | 3.91 (≈ 1.75 µM) | 3.9 (≈ 1.75 µM) | 125 (≈ 55.9 µM) | 125 (≈ 55.9 µM) | 1.95 (≈ 0.873 µM) | –
CC[C@H](C)[C@H](NC(=O)[C@H](CCCNC(=N)N)NC(=O)[C@@H]1CCCN1C(=O)[C@H](Cc1c[nH]cn1)NC(=O)[C@@H]1CCCN1C(=O)[C@@H]1CCCN1C(=O)[C@H](CCCNC(=N)N)NC(=O)[C@@H]1CCCN1C(=O)[C@H](CCCN)NC(=O)[C@@H]1CCCN1C(=O)[C@@H](NC(=O)[C@H](Cc1ccc(O)cc1)NC(=O)[C@@H](NC(=O)[C@@H]1CCCN1C(=O)[C@H](CCCNC(=N)N)NC(=O)[C@H](CC(N)=O)NC(=O)[C@H](CC(N)=O)NC(=O)CN)C(C)C)[C@@H](C)CC)C(N)=O [compound 9] (H-GNNRPVYIP[Orn]PRPPHPRI-NH2) | – | – | 2 (≈ 0.955 µM) | 16 (≈ 7.64 µM) | – | 16 (≈ 7.64 µM) | – | – | 0.49 (≈ 0.234 µM) | 1.95 (≈ 0.931 µM) | – | – | – | – | – | – | MIC E. coli 45849 (E. coli 45849; 45849, 20 h): 1 µg/mL (≈ 0.478 µM); MIC K. Pneumonia 123132 (K. Pneumonia 123132; 20 h): 8 µg/mL (≈ 3.82 µM); MIC R. radiobatter ATCC 15955 ([3]; ATCC 15955, 20 h): <0.16 µg/mL; MIC M. luteus ATCC 10240 (M. luteus ATCC 10240; 1% TSB, 37° C., 20 hrs): 1.95 µg/mL (≈ 0.931 µM); MIC E. coli 1103 (E. coli 1103; 1% TSB, 37° C., 20 hrs): 3.9 µg/mL (≈ 1.86 µM); MIC K. pneumonia 681 (K. pneumonia 681; 1% TSB, 37° C., 20 hrs): 3.9 µg/mL (≈ 1.86 µM); MIC Mycobacterium vaccae (Mycobacterium vaccae; 1% TSB, 37° C., 20 hrs): 125 µg/mL (≈ 59.7 µM); MIC B. subtilis 347 (B. subtilis 347; 1% TSB, 37° C., 20 hrs): >125 µg/mL
CC[C@H](C)[C@H](NC(=O)[C@H](Cc1ccc(O)cc1)NC(=O)[C@@H](NC(=O)[C@@H]1CCCN1C(=O)[C@H](CCCNC(=N)N)NC(=O)[C@H](CC(N)=O)NC(=O)[C@H](CC(N)=O)NC(=O)[C@@H](N)CCCN)C(C)C)C(=O)N1CCC[C@H]1C(=O)N[C@@H](CCC(N)=O)C(=O)N1CCC[C@H]1C(=O)N[C@@H](CCCNC(=N)N)C(=O)N1CCC[C@H]1C(=O)N1CCC[C@H]1C(=O)N[C@@H](Cc1c[nH]cn1)C(=O)N1CCC[C@H]1C(=O)N[C@@H](CCCNC(=N)N)C(=O)N[C@@H](CC(C)C)C(N)=O [compound 8] (H-[Orn]NNRPVYIPQPRPPHPRL-NH2) | 30 | <0.25 | <0.5 | 2 (≈ 0.924 µM) | 1 (≈ 0.462 µM) | 16 (≈ 7.39 µM) | <0.25 | <0.16 | 0.24 (≈ 0.111 µM) | 0.98 (≈ 0.453 µM) | 7.84 (≈ 3.62 µM) | – | 1.95 (≈ 0.901 µM) | 125 (≈ 57.7 µM) | >125 | – | –
